Test results reported in US4241074A, “Prostaglandin analogues” (Beecham Group Limited, priority 1978, dated 1980).

How the values were obtained:
[1] = system: indomethacin induced gastric ulceration; assay: inhibition of indomethacin induced gastric ulceration in the rat; format: in vivo
Text: The compounds were examined for their ability to inhibit indomethacin induced gastric ulceration in the rat and the activities are shown in Table 2.

[2] = system: broncho-constriction induced by an histamine aerosol; assay: protection of conscious guinea-pigs against broncho-constriction induced by an histamine aerosol (Herxheimer test); format: in vivo, guinea-pig
Procedure: (b) The Compounds were also examined for their ability to protect conscious guinea-pigs against broncho-constriction induced by an histamine aerosol (Herxheimer test). The Compounds were administered by aerosol.
The aerosol was produced in the following manner.
Water soluble Compounds were dissolved in normal saline at a concentration of […]. Water insoluble Compounds were dissolved in ethanol at a concentration of 10 μg/ml. These solutions were then diluted to the test concentrations with normal saline.

[3] = system: 5-hydroxytryptamine induced bronchoconstriction; assay: inhibition of 5-hydroxytryptamine induced bronchoconstriction in the anaesthetised, artificially respired guinea-pig (Konzett-Rossler preparation); format: in vivo; settings: Cavia porcellus, iv, vs 5-hydroxytryptamine, read-out: Konzett-Rossler Test Ed50
Text: (a) The Compounds were examined for their ability to inhibit 5-hydroxytryptamine induced bronchoconstriction in the anaesthetised, artificially respired guinea-pig (Konzett-Rossler preparation).

SMILES | % Inhibition of Damage ([1]; 100 mg/kg p.o.) [%] | % Increase in pre-convulsive coughing time at a dose of 10 μg/ml ([2]; after 2 mins.) [%] | ED50 [3] [µg/kg] | further results
CCCCCCC(C)(O)CCN1CN(C)C(=O)C1CCCCCCCC(C)=O (stereo not shown) [Compound 3, 1-(3'-hydroxy-3'-methyl-n-nonyl)-3-methyl-5-(8"-oxo-n-nonyl)-4-imidazolidone] | 65 |  |  | 
CCCCCCC(C)(O)CCN1C(=O)NC(=O)C1CCCCCCCC(C)=O (stereo not shown) [Compound 8, 1-(3'-hydroxy-3'-methyl-n-nonyl)-5-(8"-oxo-n-nonyl) hydantoin] |  | 81 |  | 
CC(=O)CCCCCCCC1C(=O)N(C)C(=O)N1CCC(C)(O)C1CCCCC1 (stereo not shown) [Compound 11, 1-(3'-hydroxy-3'-cyclohexyl-n-butyl)-3-methyl-5-(8"-oxo-n-nonyl) hydantoin] |  | 140 | 1 | % Increase in pre-convulsive coughing time at a dose of 10 μg/ml ([2]; after 5 mins.): 23%
CCCCCCC(C)(O)CCN1C(=O)N(C)C(=O)C1CC#CCCCCC(C)=O (stereo not shown) [Compound 6, 1-(3'-hydroxy-3'-methyl-n-nonyl)-3-methyl-5-(8"-oxo-non-2-ynyl) hydantoin] |  | 29 |  | % Increase in pre-convulsive coughing time at a dose of 10 μg/ml ([2]; after 5 mins.): 15%
CCCCCCC(C)(O)CCN1C(=O)N(C)C(=O)C1CCCCCCC(C)=O (stereo not shown) [Compound 9, 1-(3'-hydroxy-3'-methyl-n-nonyl)-3-methyl-5-(7"-oxo-n-octyl) hydantoin] |  |  | 67.5 | 
CCCCCCC(C)(O)CCN1C(=O)N(C)C(=O)C1CCCCCCCC(C)=O (stereo not shown) [Compound 1, 1-(3'-hydroxy-3'-methyl-n-nonyl)-3-methyl-5-(8"-oxo-n-nonyl) hydantoin] | 100 |  | 1.4 | % Inhibition of Damage ([1]; 25 mg/kg p.o.): 64%; % Inhibition of Damage ([1]; 50 mg/kg p.o.): 74%
CCCCCCC(C)(O)CCN1C(=S)N(C)C(=O)C1CCCCCCCC(C)=O (stereo not shown) [Compound 2, 1-(3'-hydroxy-3'-methyl-n-nonyl)-3-methyl-5-(8"-oxo-n-nonyl)-2-thiohydantoin] | 100 |  |  | 
